{"source": "patent US10428030B2", "about": "“Heterocycle derivatives and their use for the treatment of CNS disorders” (Trillium Therapeutics Inc., priority 2015, dated 2019)", "key": {"mice": {"test_system": "mice", "test": "Intravenous Metrazol Seizure Threshold Test (i.v. MET)", "assay_type": "in vivo", "conditions": "mouse, ip, i.v. Metrazol infusion (FIG. 1)", "description": "The iv-Met test provides a measure of a test substance's ability to raise or lower seizure threshold. Two doses of the test compound are usually employed in this test, the MES ED50 and the TD50 determined following ip quantification testing in mice. Randomly selected mice are injected intraperitoneally 2 minutes apart with either the vehicle or the two test drug doses, maintaining the same order of dosing until 30 mice have been injected. At the previously determined TPE, 0.5% heparinized Metrazol solution is infused at a constant rate of 0.34 ml/min into a lateral tail vein of an unrestrained mouse. Infusion is by means of a Sage syringe pump (model 341 A) and a 10 ml B-D plastic syringe connected to a length of No 20 P.E. tubing. A 27 gauge stainless steel needle with the hub removed is connected to the tubing and inserted into a vein, bevel side up and secured to the tail by a narrow piece of adhesive tape. For the placement of the needle, the mouse is restrained in a cone shaped device with only the tail exposed. The rate selector is set on 4, and the switch is set at ml/min. […] The time in seconds from the start of the infusion to the appearance of the “first twitch” and the onset of sustained clonus is recorded. […]\nThe mean and standard error for each of the 3 groups and the significance of the difference between the test groups and the control are calculated."}, "[1]": {"test": "Fixed speed rotorod, gross motor function (rat)", "conditions": "male, Sprague-Dawley, in vivo, po", "description": "On the test day following a defined drug pretreatment period, rats received a maximal electroshock (150 mA, 0.2 s duration, 60 Hz) via corneal electrodes. Protection was defined as absence of a full tonic seizure within 10 s of stimulus delivery. Twenty minutes before the MES procedure, the animals were tested on a fixed speed rotorod (best score from 3 trials at 8 r.p.m, trial duration=60 s) to give an early assessment of drug effect on gross motor function."}, "Rotorod (ip), mouse": {"test": "Rotorod (ip), mouse", "conditions": "in vivo, mice"}, "MTLE mice": {"test_system": "MTLE mice", "test": "Model of mesial temporal lobe epilepsy (mTLE), hippocampal paroxysmal discharges", "assay_type": "in vivo, mouse", "conditions": "for Effect (% baseline): HPD; for Effect (% baseline) / Mean HPD Counts: mice 4 weeks after intra-hippocampal KA", "from_the_text": "The MTLE mouse model recapitulates many of the characteristics observed in human patients with temporal lobe epilepsy (TLE). The MTLE mouse is characterized by an initial neurotoxic event, a unilateral intrahippocampal injection of kainic acid (KA) into the dorsal hippocampus, which induces non-convulsive SE lasting several hours. This initial event is followed by a latent phase. Two to three weeks after KA injection, spontaneous recurrent hippocampal paroxysmal discharges (HPD) are only recorded in the epileptic hippocampus and remain stable and stereotyped for the whole life of the animal. These HPDs occur spontaneously about 30-60 times per hour when the animals are in a state of quiet wakefulness, generally last 15-20 sec and are associated with behavioral arrest and/or mild motor automatisms. Adult, male […] mice are stereotaxically injected with kainate (1 nmol in 100 nL) and implanted with 1 bipolar electrode in the dorsal hippocampus, and then allowed to recover for four weeks prior to evaluation in the screening protocol. Using a group size of 4 MTLE mice per dose of investigational compound, the compounds are typically first tested using the 6 Hz 44 mA ED50 value. […] For all acute studies, drug conditions are counter-balanced in MTLE mice over a two week period using a Latin square dosing protocol. Animals are used as their own controls. Digital EEG recordings are performed on freely moving animals for 20 minutes pre-injection (reference period) and 90 minutes post-injection. Data are analyzed for the period of 10 minutes before and 10 minutes after peak time of effect of the investigational compound, as determined from the 6 Hz 44 mA seizure test. The effects of the injected compound are compared to the reference period. Any accompanying effect on animal behavior is noted. Data are presented as the raw number of HPDs during the analyzed 20 min period (10 minutes before and 10 minutes after peak time of effect of compound) for each MTLE mouse, group mean number of HPDs, and effect on suppression as represented by percent of baseline HPD values."}}, "data": [{"molecule": "O=C1COc2cc(OCc3ccc(OC(F)F)cc3)ccc2N1", "note": "[Compound I(B)]", "values": [{"measurement": "effect on seizure threshold", "setting": "mice", "result": "dose-dependently increased the seizure threshold"}, {"measurement": "ED50 at 4 hours", "setting": "[1]", "result": "> 500", "unit": "mg/kg"}, {"measurement": "ED50 at 0.5 hours", "setting": "Rotorod (ip), mouse", "result": "> 500", "unit": "mg/kg"}, {"measurement": "Effect (% baseline)", "setting": "MTLE mice; after 80 mg/kg", "result": 42.0, "unit": "% baseline"}, {"measurement": "Mean HPD Counts", "setting": "MTLE mice; after 80 mg/kg", "result": 7.25}, {"measurement": "Effect (% baseline)", "setting": "MTLE mice; after 160 mg/kg", "result": 17.9, "unit": "% baseline"}, {"measurement": "Mean HPD Counts", "setting": "MTLE mice; after 160 mg/kg", "result": 4.25}, {"measurement": "effect against spontaneous recurrent hippocampal paroxysmal discharges (HPD)", "setting": "MTLE mice; dose of 125 mg/kg", "result": "effective"}]}]}
